Assay results as given in patent publication US20260001914A1, “MACROCYCLIC PEPTIDES TARGETING KRAS” (Merck Sharp & Dohme LLC, priority 2022, published 2026).
*1 amine or outer side, *2 acyl side, *3 side chain or, on linkers, in order; H or OH if unused. Where a SMILES comes first, the peptide text is derived from it. Bridges are numbered along the chain shown (N, C = ends). [ ]: non-standard residue; d: D form. NMeNva(5-imidazol-1-yl) = CN[C@@H](CCCn1ccnc1)C(=O)O; Phe(4-guanidino) = N=C(N)Nc1ccc(C[C@H](N)C(=O)O)cc1; N(3-imidazol-1-ylpropyl)Gly = O=C(O)CNCCCn1ccnc1; X59 = O=C([C@H](Cc1ccc(CN2CCCC2)cc1)N[*:1])[*:2]; Ala(pyrimidin-5-yl) = N[C@@H](Cc1cncnc1)C(=O)O; NMe3Pal(6-Me) = CN[C@@H](Cc1ccc(C)nc1)C(=O)O; NMePhe(3-Me) = CN[C@@H](Cc1cccc(C)c1)C(=O)O; X39 = CN([C@@H](Cc1cccnc1F)C(=O)[*:2])[*:1]; X11 = CC(C)(F)CC[C@H](N[*:1])C(=O)[*:2]; X13 = O=C([C@H](Cc1ccncc1F)N[*:1])[*:2]; X46 = O=C([C@H](Cc1cccnc1F)N[*:1])[*:2]; Nle(5,5-F2) = CC(F)(F)CC[C@H](N)C(=O)O; X40 = CC(C)(F)C[C@H](N[*:1])C(=O)[*:2]; 1Nal = N[C@@H](Cc1cccc2ccccc12)C(=O)O; NHCH2CH2SCH2CO = O=C(CSCCN[*:1])[*:2]; Ala(cPent) = N[C@@H](CC1CCCC1)C(=O)O; Phe(2-F) = N[C@@H](Cc1ccccc1F)C(=O)O; NMe3Pal = CN[C@@H](Cc1cccnc1)C(=O)O; X1 = O=C(C12CC(CN[*:1])(C1)C2)[*:2]; NMeOrn(Me) = CNCCC[C@H](NC)C(=O)O; Ala(cPr) = N[C@@H](CC1CC1)C(=O)O; NMeF = CN[C@@H](Cc1ccccc1)C(=O)O; PhLac = O=C(O)[C@@H](O)Cc1ccccc1; 3Pal = N[C@@H](Cc1cccnc1)C(=O)O; d3Pal = N[C@H](Cc1cccnc1)C(=O)O; Ahp(2) = CCCCC[C@H](N)C(=O)O; Cba = N[C@@H](CC1CCC1)C(=O)O; hLeu = CC(C)CC[C@H](N)C(=O)O; αMeC = C[C@](N)(CS)C(=O)O; NMeA = CN[C@@H](C)C(=O)O; Nle = CCCC[C@H](N)C(=O)O; Nva = CCC[C@H](N)C(=O)O

Target: KRAS-G12D protein (Homo sapiens, UniProt P01116, G12D)
Assay: SOS-mediated nucleotide exchange assay (BODIPY-GDP / Tb-streptavidin TR-FRET)
Assay type: biochemical

KRAS-G12D protein, sequence (P01116 1-188 isoform P01116-2 G12D): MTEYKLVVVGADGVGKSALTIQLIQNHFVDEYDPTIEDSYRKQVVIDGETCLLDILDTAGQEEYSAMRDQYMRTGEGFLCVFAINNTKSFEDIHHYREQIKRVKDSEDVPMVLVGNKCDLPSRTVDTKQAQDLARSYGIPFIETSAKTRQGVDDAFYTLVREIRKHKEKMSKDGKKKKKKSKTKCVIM

Row | Compound | EC50
1 | CCCC[C@@H]1NC(=O)[C@H](Cc2cccnc2)NC(=O)[C@H](CCCNC(=N)N)NC(=O)[C@H](Cc2ccccc2)NC(=O)CSC[C@@](C)(C(N)=O)NC(=O)[C@H](Cc2ccccc2)N(C)C(=O)[C@H](CCCC)NC(=O)[C@H](Cc2ccccc2F)NC1=O [compound 160, cyclo(F-R-3Pal-Nle-Phe2F-Nle-NMeF-aMeCl-ClAc)] ({CH2CO}-FR[3Pal][Nle][Phe(2-F)][Nle][NMeF][αMeC]-NH2; thioether N-8) | 0.0128 µM
2 | Cc1cccc(C[C@H]2C(=O)NCC34CC(C3)(C4)C(=O)O[C@@H](Cc3ccccc3)C(=O)N(C)[C@@H](C)C(=O)N[C@@H](Cc3cncnc3)C(=O)N[C@@H](CC3CC3)C(=O)N[C@@H](Cc3ccncc3F)C(=O)N[C@@H](CCC(C)C)C(=O)N2C)c1 [compound 279, cyclo(FLac-NMeA-PyrimAla-cPrA-4Pal2F-hL-NMePhe3Me-amBCP)] (cyclo([Ala(cPr)][X13][hLeu][NMePhe(3-Me)][X1][PhLac][NMeA][Ala(pyrimidin-5-yl)])) | 0.003 µM
3 | C[C@H]1C(=O)N[C@@H](Cc2cncnc2)C(=O)N[C@@H](CC2CC2)C(=O)N[C@@H](Cc2ccccc2F)C(=O)N[C@@H](CCC(C)(C)F)C(=O)N(C)[C@@H](Cc2ccccc2)C(=O)NCC23CC(C2)(C3)C(=O)O[C@@H](Cc2ccccc2)C(=O)N1C [compound 277, cyclo(FLac-NMeA-PyrimAla-cPrA-Phe2F-hL3F-NMeF-amBCP)] (cyclo([Ala(cPr)][Phe(2-F)][X11][NMeF][X1][PhLac][NMeA][Ala(pyrimidin-5-yl)])) | 0.002 µM
4 | CC(C)CC[C@@H]1NC(=O)[C@H](Cc2ccccc2F)NC(=O)[C@H](CC2CC2)NC(=O)[C@H](Cc2cncnc2)NC(=O)[C@H](C)N(C)C(=O)[C@H](Cc2ccccc2)OC(=O)C23CC(CNC(=O)[C@H](Cc4cccnc4F)N(C)C1=O)(C2)C3 [compound 336, cyclo(FLac-NMeA-PyrimAla-cPrA-Phe2F-hL-NMe3Pal2F-amBCP)] (cyclo([Ala(cPr)][Phe(2-F)][hLeu][X39][X1][PhLac][NMeA][Ala(pyrimidin-5-yl)])) | 0.005 µM
5 | CCCC[C@@H]1NC(=O)[C@H](Cc2cccnc2F)NC(=O)[C@H](C)N(C)C(=O)[C@H](Cc2ccccc2)OC(=O)C23CC(CNC(=O)[C@H](Cc4cccnc4)N(C)C(=O)[C@H](CCCC)NC(=O)[C@H](Cc4ccccc4F)NC1=O)(C2)C3 [compound 117, cyclo(FLac-NMeA~3Pal2F-Nle-Phe2F-Nle-NMe3Pal-amBCP)] (cyclo([NMe3Pal][X1][PhLac][NMeA][X46][Nle][Phe(2-F)][Nle])) | 1.45 µM
6 | C[C@H]1C(=O)N[C@@H](Cc2cncnc2)C(=O)N[C@@H](CCC(C)(F)F)C(=O)N[C@@H](Cc2ccccc2F)C(=O)N[C@@H](CCC(C)(F)F)C(=O)N(C)[C@@H](Cc2ccccc2)C(=O)NCC23CC(C2)(C3)C(=O)O[C@@H](Cc2ccccc2)C(=O)N1C [compound 288, cyclo(FLac-NMeA-PyrimAla-Nle3F2-Phe2F-Nle3F2-NMeF-amBCP)] (cyclo([NMeA][Ala(pyrimidin-5-yl)][Nle(5,5-F2)][Phe(2-F)][Nle(5,5-F2)][NMeF][X1][PhLac])) | 0.247 µM
7 | CCCCC[C@@H]1NC(=O)[C@H](Cc2ccc(OC)cc2)NC(=O)[C@H](CC2CCC2)NC(=O)[C@H](Cc2ccoc2)NC(=O)[C@H](CCCNC(=N)N)NC(=O)[C@H](Cc2ccccc2)NC(=O)CSC[C@@](C)(C(N)=O)NC(=O)[C@H](Cc2ccccc2)N(C)C1=O [compound 371, cyclo(F-R-Ala3Fur-cBuA-TyrOMe-Ahp-NMeF-aMeCl-ClAc)] | 0.0826 µM
8 | CCCC[C@@H]1NC(=O)[C@H](Cc2cccnc2)NC(=O)[C@H](C)N(C)C(=O)[C@H](Cc2ccc(OC)cc2)NC(=O)C23CC(CNC(=O)[C@H](Cc4cccnc4)N(C)C(=O)[C@H](CCCC)NC(=O)[C@H](Cc4ccccc4F)NC1=O)(C2)C3 [compound 169, cyclo(TyrOMe-NMeA-3Pal-Nle-Phe2F-Nle-NMe3Pal-amBCP)] (cyclo([3Pal][Nle][Phe(2-F)][Nle][NMe3Pal][X1]Y(Me)[NMeA])) | 0.757 µM
9 | CCCC[C@@H]1NC(=O)[C@H](Cc2ccc(O)cc2)NC(=O)[C@H](CC(C)C)NC(=O)[C@H](Cc2ccc(O)cc2)NC(=O)[C@H](CCCNC(=N)N)NC(=O)[C@H](Cc2cccc3ccccc23)NC(=O)CSC[C@H](C(N)=O)NC(=O)[C@H](Cc2ccccc2)N(C)C1=O [compound 17, cyclo(INal-R-Y-L-Y-Nle-NMeF-dCl-ClAc)] ({CH2CO}-[1Nal]RYLY[Nle][NMeF][dC]-NH2; thioether N-8) | 1.05 µM
10 | CCCC[C@@H]1NC(=O)[C@H](Cc2ccc(O)cc2)NC(=O)[C@H](CCC)NC(=O)[C@H](Cc2ccc(O)cc2)NC(=O)[C@H](CCCNC(=N)N)NC(=O)[C@H](Cc2ccccc2)NC(=O)CSCCNC(=O)[C@H](Cc2ccccc2)N(C)C1=O [compound 76, cyclo(F-R-Y-Nva-Y-Nle-NMeF-Cysteamine-ClAc)] (cyclo(FRY[Nva]Y[Nle][NMeF][NHCH2CH2SCH2CO])) | 5.31 µM
11 | CC(C)CC[C@@H]1NC(=O)[C@H](Cc2ccccc2F)NC(=O)[C@H](CC(C)(C)F)NC(=O)[C@H](Cc2cncnc2)NC(=O)[C@H](C)N(C)C(=O)[C@H](Cc2ccccc2)OC(=O)C23CC(CNC(=O)[C@H](Cc4ccccc4)N(C)C1=O)(C2)C3 [compound 136, cyclo(FLac-NMeA-PyrimAla-Leu3F-Phe2F-hL-NMeF-amBCP)] (cyclo([NMeA][Ala(pyrimidin-5-yl)][X40][Phe(2-F)][hLeu][NMeF][X1][PhLac])) | 0.114 µM
12 | CCCCC[C@@H]1NC(=O)[C@H](Cc2ccc(OC)cc2)NC(=O)[C@H](CC2CCC2)NC(=O)[C@H](Cc2ccc(N(C)C(=N)NC)cc2)NC(=O)[C@H](CCCNC(=N)N)NC(=O)[C@H](Cc2ccccc2)NC(=O)CSC[C@@](C)(C(N)=O)NC(=O)[C@H](Cc2ccccc2)N(C)C1=O [compound 382, cyclo(F-R-Phe4GnMeMe-cBuA-TyrOMe-Ahp-NMeF-aMeCl-ClAc)] | 0.0016 µM
13 | CCCC[C@@H]1NC(=O)[C@H](Cc2ccccc2F)NC(=O)[C@H](CC2CCC2)NC(=O)[C@@H](Cc2cccnc2)NC(=O)CN(CCCn2ccnc2)C(=O)[C@H](Cc2ccccc2)NC(=O)C23CC(CNC(=O)[C@H](Cc4cccnc4)N(C)C1=O)(C2)C3 [compound 181, cyclo(F-IPG-d3Pal-cBuA-Phe2F-Nle-NMe3Pal-amBCP)] (cyclo(F[N(3-imidazol-1-ylpropyl)Gly][d3Pal][Cba][Phe(2-F)][Nle][NMe3Pal][X1])) | 1.23 µM
14 | CCCC[C@@H]1NC(=O)[C@H](Cc2cccnc2)NC(=O)[C@H](C)N(C)C(=O)[C@H](Cc2ccccc2)NC(=O)CSC[C@@](C)(C(N)=O)NC(=O)[C@H](Cc2ccccc2)N(C)C(=O)[C@H](CCCC)NC(=O)[C@H](Cc2ccccc2F)NC1=O [compound 159, cyclo(F-NMeA-3Pal-Nle-Phe2F-Nle-NMeF-aMeCl-ClAc)] ({CH2CO}-F[NMeA][3Pal][Nle][Phe(2-F)][Nle][NMeF][αMeC]-NH2; thioether N-8) | 0.11 µM
15 | CCCCC[C@@H]1NC(=O)[C@H](Cc2ccc(OC)cc2)NC(=O)[C@H](CC2CCC2)NC(=O)[C@H](Cc2cnn(C)c2)NC(=O)[C@H](CCCNC(=N)N)NC(=O)[C@H](Cc2ccccc2)NC(=O)CSC[C@@](C)(C(N)=O)NC(=O)[C@H](Cc2ccccc2)N(C)C1=O [compound 372, cyclo(F-R-Ala4PyzlMe-cBuA-TyrOMe-Ahp-NMeF-aMeCl-ClAc)] | 0.0102 µM
16 | CCCCC[C@@H]1NC(=O)[C@H](Cc2ccc(OC)cc2)NC(=O)[C@H](CCCC)NC(=O)[C@H](Cc2ccc(NC(=N)N)cc2)NC(=O)[C@H](CCCNC(=N)N)NC(=O)[C@H](Cc2ccccc2)NC(=O)CSC[C@H](C(N)=O)NC(=O)[C@H](Cc2ccccc2)N(C)C1=O [compound 350, cyclo(F-R-Phe4Gn-Nle-TyrOMe-Abp-NMeF-dCl-ClAc)] ({CH2CO}-FR[Phe(4-guanidino)][Nle]Y(Me)[Ahp(2)][NMeF][dC]-NH2; thioether N-8) | 0.0354 µM
17 | CCCC[C@@H]1NC(=O)[C@H](Cc2ccc(CN3CCCC3)cc2)NC(=O)[C@H](CCCn2ccnc2)N(C)C(=O)[C@H](Cc2ccccc2)N(C)C(=O)C23CC(CNC(=O)[C@H](Cc4cccnc4)N(C)C(=O)[C@H](CCCC)NC(=O)[C@H](Cc4ccccc4F)NC1=O)(C2)C3 [compound 259, cyclo(NMeF-NMeNvalmid-Phe4cPyrr-Nle-Phe2F-Nle-NMe3Pal-amBCP)] (cyclo([NMe3Pal][X1][NMeF][NMeNva(5-imidazol-1-yl)][X59][Nle][Phe(2-F)][Nle])) | 3.22 µM
18 | CCCCC[C@@H]1NC(=O)[C@H](Cc2ccc(O)cc2)NC(=O)[C@H](CC(C)C)NC(=O)[C@H](Cc2ccc(O)cc2)NC(=O)[C@H](CCCNC(=N)N)NC(=O)[C@H](Cc2ccccc2)NC(=O)CSC[C@H](C(N)=O)NC(=O)[C@H](Cc2ccccc2)N(C)C1=O [compound 3, cyclo(F-R-Y-L-Y-Ahp-NMeF-dCl-ClAc)] | 0.966 µM
19 | CCCCC[C@@H]1NC(=O)[C@H](Cc2ccc(OC)cc2)NC(=O)[C@H](CC2CCC2)NC(=O)[C@H](Cc2cncnc2)NC(=O)[C@H](CCCNC)N(C)C(=O)[C@H](Cc2ccccc2)NC(=O)CSC[C@@](C)(C(N)=O)NC(=O)[C@H](Cc2ccc(C)nc2)N(C)C1=O [compound 394, cyclo(F-NMeOmMe-PyrimAla-cBuA-TyrOMe-Ahp-NMe3Pal4Me-aMeCl-ClAc)] ({CH2CO}-F[NMeOrn(Me)][Ala(pyrimidin-5-yl)][Cba]Y(Me)[Ahp(2)][NMe3Pal(6-Me)][αMeC]-NH2; thioether N-8) | 0.0658 µM
20 | CCCC[C@@H]1NC(=O)[C@H](Cc2ccccc2F)NC(=O)[C@H](CC2CCCC2)NC(=O)[C@H](Cc2cncnc2)NC(=O)[C@H](C)N(C)C(=O)[C@H](Cc2ccccc2)OC(=O)C23CC(CNC(=O)[C@H](Cc4cccnc4)N(C)C1=O)(C2)C3 [compound 126, cyclo(FLac-NMeA-PyrimAla-cPeA-Phe2F-Nle-NMe3Pal-amBCP)] (cyclo([Ala(cPent)][Phe(2-F)][Nle][NMe3Pal][X1][PhLac][NMeA][Ala(pyrimidin-5-yl)])) | 0.0223 µM
21 | CCCCC[C@@H]1NC(=O)[C@H](Cc2ccc(OC)cc2)NC(=O)[C@H](CC2CCC2)NC(=O)[C@H](Cc2ccc(N3CCC[C@@H]3CN)cc2)NC(=O)[C@H](CCCNC(=N)N)NC(=O)[C@H](Cc2ccccc2)NC(=O)CSC[C@@](C)(C(N)=O)NC(=O)[C@H](Cc2ccccc2)N(C)C1=O [compound 391, cyclo(F-R~Phe4RamPyrr-cBuA-TyrOMe-Abp-NMeF-aMeCl-ClAc)] | 0.00678 µM
